Test results published in patent US20260217746A1, “CRYSTALLINE FORMS OF ANTIOXIDANT COMPOUND” (Mitotech Ltd, priority 2023, published 2026).
One block for each molecule: values may come before it.

Key:
Format in all cases: physicochemical
[1] = Photodegradation of solid SkQ1 bromide under natural day/night illumination
Protocol: As a result, SkQ1 was stored in light protective packaging or a dark glass container. The crystalline form of SkQ1 bromide as prepared in Example 2C and was tested by placing 50 mg portions at room temperature in transparent plastic vials, under conditions of natural change of day and night illumination with indirect sunlight.

[2] = Resistance to gamma radiation (sterilization); settings: sterilization by gamma radiation
[3] = Stability of crystalline SkQ1 chloride and iodide compared with SkQ1 bromide; settings: crystals obtained by the same crystallization methods
Source text: Purity and stability parameters of obtained SkQ1 Cl and SkQ I were similar to such parameters of SkQ1 bromide.

[4] = Solubility in water and in protic solvents (observations during crystallization work)
Protocol: Attempts to reduce the concentration of ethanol and to use isopropanol were undertaken. SkQ1 bromide in an amount of 177 mg was added to an ethanol (1V)-ethyl acetate (5V) mixture. In another experiment, SkQ1 in an amount of 178 mg was added to an isopropanol (1V)-ethyl acetate (5V) mixture. […] To each of the above solutions, 5V ml of MTBE was added, initially oiling out the supersaturated solution. After leaving the solution overnight at room temperature, crystals were formed. This process with varying amounts of ethanol (from 0.274-0.574 V) led to similar results of solid formation after MTBE addition. Similarly, ethyl acetate was increased to 10V, with similar results of fine solid formation only after adding MTBE, but with lower yields. When ethanol solvent amounts were increased ton 1.174 V, crystallization occurred after adding MTBE, but yields were low.

[5] = Hygroscopicity of the isolated solid; settings: non-crystalline solid as isolated
Source text: Hygroscopic solids are associated with numerous difficulties when attempting to use them in pharmaceutical compositions, including low stability and difficulty in handling. Crystallization of halide salts of SkQ1 by using a number of solvents, individually or in combination, was attempted.

photosensitivity ([1]; amorphous form, stored in light protective packaging or dark glass container): photosensitive
stability to gamma radiation ([2]; listed as oil form): degraded
SMILES: CC1=C(C)C(=O)C(CCCCCCCCCC[P+](c2ccccc2)(c2ccccc2)c2ccccc2)=CC1=O [Amorphous SkQ1 bromide, 2,3-dimethyl-1,4-benzoquinone-5-decyl-triphenylphosphonium bromide, reference compound]

stability parameters relative to SkQ1 bromide [3]: similar
SMILES: CC1=C(C)C(=O)C(CCCCCCCCCC[P+](c2ccccc2)(c2ccccc2)c2ccccc2)=CC1=O [SkQ1 Cl]

solubility in protic solvents ([4]; ethanol (1V)- or isopropanol (1V)-ethyl acetate (5V) mixture, room temperature, 0.5 hours): highly soluble
solubility in water ([4]; water): sparingly soluble
hygroscopicity [5]: hygroscopic
hygroscopicity ([5]; listed as SkQ1 bromide salt): highly hygroscopic
SMILES: CC1=C(C)C(=O)C(CCCCCCCCCC[P+](c2ccccc2)(c2ccccc2)c2ccccc2)=CC1=O [SkQ1 bromide, 2,3-dimethyl-1,4-benzoquinone-5-decyl-triphenylphosphonium bromide]

resistance to degradation, in particular photodegradation, compared to the previously known amorphous form ([1]; crystalline versus amorphous form): more resistant to degradation
stability to gamma radiation ([2]; listed as crystalline SkQ1): resistant to gamma radiation
SMILES: CC1=C(C)C(=O)C(CCCCCCCCCC[P+](c2ccccc2)(c2ccccc2)c2ccccc2)=CC1=O [crystalline form of SkQ1 bromide, 2,3-dimethyl-1,4-benzoquinone-5-decyl-triphenylphosphonium bromide]
sample photodegradation ([1]; 50 mg portions, room temperature, transparent plastic vials, natural day and night illumination with indirect sunlight, analyzed at 6 hours, 4 days, 1 month and 2 months): no degradation was found in any of the samples
